From US11111251B2, “Positive allosteric modulators of the muscarinic acetylcholine receptor M1” (Vanderbilt University, priority 2016, dated 2021)

Biological target: T1, human mAChR M1 (Homo sapiens, UniProt P11229)
T1 sequence (P11229 1-460): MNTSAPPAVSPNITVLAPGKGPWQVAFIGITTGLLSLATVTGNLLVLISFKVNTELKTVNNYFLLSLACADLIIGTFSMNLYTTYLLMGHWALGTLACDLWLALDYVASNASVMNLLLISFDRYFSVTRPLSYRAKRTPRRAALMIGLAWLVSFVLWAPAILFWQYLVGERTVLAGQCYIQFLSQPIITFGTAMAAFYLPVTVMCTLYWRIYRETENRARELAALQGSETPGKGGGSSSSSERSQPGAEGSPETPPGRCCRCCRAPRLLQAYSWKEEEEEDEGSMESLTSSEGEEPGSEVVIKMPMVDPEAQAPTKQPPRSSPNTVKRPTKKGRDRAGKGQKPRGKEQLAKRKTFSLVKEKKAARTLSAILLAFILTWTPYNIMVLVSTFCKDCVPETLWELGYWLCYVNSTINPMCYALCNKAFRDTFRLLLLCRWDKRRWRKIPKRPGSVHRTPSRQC
Assay: mAChR M1 cell-based functional assay: calcium mobilization, positive allosteric modulator mode (increase in EC20 acetylcholine response)
Conditions: Table 2, human M1; for EC50: read-out: Human M1 EC50; for Emax: read-out: Human M1 Emax (%)
Outline: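 Calcium-flux assay in CHO-K1 cells stably expressing human M1, loaded with Fluo-4 AM (50 min, 37 °C) and read at 1 Hz. Compound (11-point, 1:3 series) was added at 4 s, EC20 acetylcholine at 144 s and EC80 at 230 s. PAM activity is the concentration-dependent rise in the EC20 response, fitted with a four-parameter logistic.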

Row | SMILES | EC50 [nM] | Emax [%]
1 | O=C(N[C@H]1CCCC[C@@H]1O)c1cc(Cc2ccc(-c3cscn3)cc2)c2sccc2n1 [Compound 217, N-[(1S,2S)-2-hydroxycyclohexyl]-7-[(4-thiazol-4-ylphenyl)methyl]thieno[3,2-b]pyridine-5-carboxamide] | 45.4 | 74.8
2 | Cn1cc(-c2ccc(Cc3cc(C(=O)N[C@@H]4COCC[C@H]4O)nc4ccsc34)cc2)nn1 [Compound 154, N-[(3R,4R)-4-hydroxytetrahydropyran-3-yl]-7-[[4-(1-methyltriazol-4-yl)phenyl]methyl]thieno[3,2-b]pyridine-5-carboxamide] | 6.2 | 83.9
3 | Cc1nc(-c2ccc(Cc3cc(C(=O)NC4CCOCC4)nc4ccsc34)cc2)cs1 [Compound 191, 7-[[4-(2-methylthiazol-4-yl)phenyl]methyl]-N-tetrahydropyran-4-yl-thieno[3,2-b]pyridine-5-carboxamide] | 247 | 86.9
4 | Cc1nn(C)cc1-c1ccc(Cc2cc(C(=O)N[C@H]3CCCC[C@@H]3O)nc3ccsc23)cc1 [Compound 250] | > 10000 | 48.1
5 | Cc1nc(-c2ccc(Cc3cc(C(=O)NC4CCCNC4=O)nc4ccsc34)cc2)co1 (stereo not drawn) [Compound 171, 7-[[4-(2-methyloxazol-4-yl)phenyl]methyl]-N-(2-oxo-3-piperidyl)thieno[3,2-b]pyridine-5-carboxamide] | 373 | 93
6 | Cc1nc(-c2ccc(Cc3cc(C(=O)N[C@@H]4CCCCC[C@H]4O)nc4ccsc34)cc2)co1 [Compound 170, N-[(1R,2R)-2-hydroxycycloheptyl]-7-[[4-(2-methyloxazol-4-yl)phenyl]methyl]thieno[3,2-b]pyridine-5-carboxamide] | 150 | 82.9
7 | Cc1ccc(Cc2cc(C(=O)NC3CCOCC3)nc3c(C)csc23)cn1 [Compound 102, 3-methyl-7-[(6-methyl-3-pyridyl)methyl]-N-tetrahydropyran-4-yl-thieno[3,2-b]pyridine-5-carboxamide] | 2700 | 82.5
8 | Cc1ccc(Cc2cc(C(=O)NC3CC(F)C3)nc3ccsc23)cn1 (stereo not drawn) [Compound 259, N-(3-fluorocyclobutyl)-7-[(6-methyl-3-pyridyl)methyl]thieno[3,2-b]pyridine-5-carboxamide] | > 10000 | 56.2
9 | CO[C@@H]1CCCC[C@H]1NC(=O)c1cc(Cc2cnc(C)nc2)c2sccc2n1 [Compound 130, N-[(1R,2R)-2-methoxycyclohexyl]-7-[(2-methylpyrimidin-5-yl)methyl]thieno[3,2-b]pyridine-5-carboxamide] | > 10000 | 20.1
10 | Cc1nc(-c2ccc(Cc3cc(C(=O)N[C@H]4CCCC[C@@H]4O)nc4ccsc34)cc2)cs1 [Compound 194, N-[(1S,2S)-2-hydroxycyclohexyl]-7-[[4-(2-methylthiazol-4-yl)phenyl]methyl]thieno[3,2-b]pyridine-5-carboxamide] | 59.6 | 80.7
11 | CO[C@H]1CCCC[C@@H]1NC(=O)c1cc(Cc2ccc(-c3cscn3)cc2)c2sccc2n1 [Compound 218, N-[(1S,2S)-2-methoxycyclohexyl]-7-[(4-thiazol-4-ylphenyl)methyl]thieno[3,2-b]pyridine-5-carboxamide] | > 10000 | 52.2
12 | Cc1csc2c(Cc3ccc(-n4cccn4)cc3)cc(C(=O)N(C)C3CCOCC3)nc12 [Compound 121, N,3-dimethyl-7-[(4-pyrazol-1-ylphenyl)methyl]-N-tetrahydropyran-4-yl-thieno[3,2-b]pyridine-5-carboxamide] | 6760 | 54.9
13 | Cc1nc(-c2ccc(Cc3cc(C(=O)NC4CCCN(C)C4)nc4ccsc34)cc2)cs1 (stereo not drawn) [Compound 186, N-(1-methyl-3-piperidyl)-7-[[4-(2-methylthiazol-4-yl)phenyl]methyl]thieno[3,2-b]pyridine-5-carboxamide] | 3290 | 74.2
14 | Cc1nn(C)c(C)c1-c1ccc(Cc2cc(C(=O)NC3CCOCC3)nc3ccsc23)cc1 [Compound 243, N-tetrahydropyran-4-yl-7-[[4-(1,3,5-trimethylpyrazol-4-yl)phenyl]methyl]thieno[3,2-b]pyridine-5-carboxamide] | > 10000 | 17.9
15 | Cc1csc2c(Cc3ccc(-n4cccn4)cc3)cc(C(=O)NC3CCN(C)CC3)nc12 [Compound 124, 3-methyl-N-(1-methyl-4-piperidyl)-7-[(4-pyrazol-1-ylphenyl)methyl]thieno[3,2-b]pyridine-5-carboxamide] | 2460 | 64.4
16 | O=C(N[C@@H]1CCCOC1)c1cc(Cc2ccc(-c3cscn3)cc2)c2sccc2n1 [Compound 212, N-[(3R)-tetrahydropyran-3-yl]-7-[(4-thiazol-4-ylphenyl)methyl]thieno[3,2-b]pyridine-5-carboxamide] | 858 | 73.3
17 | O=C(N[C@@H]1CCOC1)c1cc(Cc2ccc(-c3cscn3)cc2)c2sccc2n1 [Compound 207, N-[(3R)-tetrahydrofuran-3-yl]-7-[(4-thiazol-4-ylphenyl)methyl]thieno[3,2-b]pyridine-5-carboxamide] | 2970 | 77
18 | Cn1cc(-c2ccc(Cc3cc(C(=O)NC4CC5(COC5)C4)nc4ccsc34)cc2)nn1 [Compound 175, 7-[[4-(1-methyltriazol-4-yl)phenyl]methyl]-N-(2-oxaspiro[3.3]heptan-6-yl)thieno[3,2-b]pyridine-5-carboxamide] | 17.7 | 84.3
19 | Cc1ccc([C@H](F)c2cc(C(=O)N[C@H]3CCCC[C@@H]3O)nc3ccsc23)cn1 [Compound 233] | 161 | 67.8

The remaining lines, values ahead:

Row | EC50 [nM] | Emax [%] | SMILES
20 | 422 | 85.6 | Cn1cc(-c2ccc(Cc3cc(C(=O)NC4CCOC(C)(C)C4)nc4ccn(C)c34)cn2)cn1 (stereo not drawn) [Compound 472, N-(2,2-dimethyltetrahydropyran-4-yl)-1-methyl-7-[[6-(1-methylpyrazol-4-yl)-3-pyridyl]methyl]pyrrolo[3,2-b]pyridine-5-carboxamide]
21 | 703 | 71.5 | Cn1ccc(-c2ccc(Cc3cc(C(=O)NC[C@@H]4CCCO4)nc4ccsc34)cn2)n1 [Compound 414, 7-[[6-(1-methylpyrazol-3-yl)-3-pyridyl]methyl]-N-[[(2S)-tetrahydrofuran-2-yl]methyl]thieno[3,2-b]pyridine-5-carboxamide]
22 | 29.8 | 72.3 | Cn1cc(-c2ccc(Cc3cc(C(=O)N[C@H]4CCCC[C@@H]4O)nc4ccn(C)c34)cn2)cn1 [Compound 469, N-[(1S,2S)-2-hydroxycyclohexyl]-1-methyl-7-[[6-(1-methylpyrazol-4-yl)-3-pyridyl]methyl]pyrrolo[3,2-b]pyridine-5-carboxamide]
23 | 1150 | 37.5 | Cn1ccc2nc(C(=O)NC3CC(F)C3)cc(Cc3ccc(-c4nccs4)cc3)c21 (stereo not drawn) [Compound 488, N-(3-fluorocyclobutyl)-1-methyl-7-[(4-thiazol-2-ylphenyl)methyl]pyrrolo[3,2-b]pyridine-5-carboxamide]
24 | 410 | 70.8 | Cn1ccc2nc(C(=O)NC3CCOC(C)(C)C3)cc(Cc3ccc(-c4cscn4)cc3)c21 (stereo not drawn) [Compound 461, N-(2,2-dimethyltetrahydropyran-4-yl)-1-methyl-7-[(4-thiazol-4-ylphenyl)methyl]pyrrolo[3,2-b]pyridine-5-carboxamide]
25 | 5360 | 62.1 | Cc1csc2c(Cc3ccc(-c4ccn(C)n4)cc3)cc(C(=O)NC3CC(F)C3)nc12 (stereo not drawn) [Compound 308, N-(3-fluorocyclobutyl)-3-methyl-7-[[4-(1-methylpyrazol-3-yl)phenyl]methyl]thieno[3,2-b]pyridine-5-carboxamide]
26 | 59.5 | 70.1 | Cn1cc(-c2ccc(Cc3cc(C(=O)NC4CCOCC4)nc4ccsc34)cc2)cn1 [Compound 268, 7-[[4-(1-methylpyrazol-4-yl)phenyl]methyl]-N-tetrahydropyran-4-yl-thieno[3,2-b]pyridine-5-carboxamide]
27 | 458 | 86.5 | Cn1ccc(-c2ccc(Cc3cc(C(=O)NC[C@@H]4CCOC4)nc4ccsc34)cn2)n1 [Compound 357]
28 | 197 | 80.5 | Cn1cc(-c2ccc(Cc3cc(C(=O)N[C@H]4CC[C@@H]4O)nc4ccsc34)cn2)cn1 [Compound 328, N-[(1S,2S)-2-hydroxycyclobutyl]-7-[[6-(1-methylpyrazol-4-yl)-3-pyridyl]methyl]thieno[3,2-b]pyridine-5-carboxamide]
29 | 56.9 | 69 | O=C(NC1CCOCC1)c1cc(C(F)c2ccc(-c3cscn3)cc2)c2sccc2n1 (stereo not drawn) [Compound 332, 7-[fluoro-(4-thiazol-4-ylphenyl)methyl]-N-tetrahydropyran-4-yl-thieno[3,2-b]pyridine-5-carboxamide]
30 | 1870 | 71.2 | Cn1ccc2nc(C(=O)N[C@H]3CCOC3)cc(Cc3ccc(-c4cscn4)cc3)c21 [Compound 464, 1-methyl-N-[(3S)-tetrahydrofuran-3-yl]-7-[(4-thiazol-4-ylphenyl)methyl]pyrrolo[3,2-b]pyridine-5-carboxamide]
